These results are taken from ChEMBL document CHEMBL1201862, “PubChem BioAssay data set” (2004).

For assay [1], the target named is Heat shock protein HSP 90-alpha (Homo sapiens, UniProt P07900). In kind it is functional, organism-based.
Assay [2] in a line: Trypanosoma cruzi growth suppression in host cells – NIH3T3 host cells, beta-gal luminescence, confirmation (AID 2044).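 Note: intracellular parasites grown in NIH/3T3 mouse fibroblasts as host cells; luminescent beta-galactosidase reporter signal from transgenic T. cruzi replicating inside host cells; inhibitors lower the luminescence signal.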 Format: functional, cell-based.
A short description of assay [3]: NIH3T3 cell viability loss – ATP luminescence, mouse fibroblasts, counter-screen, dose response (AID 2010).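 Note: cells exposed to compound for about 90 hours before reading.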 Format: functional, cell-based.
Assay [4] can be described thus: viability of uninfected HEp-2 cells – cell-based, HTS, cytotoxicity control for RSV inhibitor project, dose response (AID 2410). In kind it is functional. The following applies: human respiratory syncytial virus.
In the next assay the test system is CHO-K1. Description: Counterscreen for antagonists of the orexin 1 receptor (OX1R; HCRTR1): Homogeneous time resolved fluorescence (HTRF)-based cell-based dose response assay to identify antagonists of the parental CHO-K1 cell line. [Related pubchem assays (depositor defined):AID434989, AID435008, AID463079, AID485270, AID492963, AID492964, AID492965, AID493232, AID504699, AID504701]. The following applies: Cricetulus griseus. In kind it is functional.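 Note: potency for inhibition of ATP-stimulated IP1 production as antagonists.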

For assay [5], the target named is T1, Orexin/Hypocretin receptor type 1 (Homo sapiens, UniProt O43613).
T1 sequence (O43613 whole entry): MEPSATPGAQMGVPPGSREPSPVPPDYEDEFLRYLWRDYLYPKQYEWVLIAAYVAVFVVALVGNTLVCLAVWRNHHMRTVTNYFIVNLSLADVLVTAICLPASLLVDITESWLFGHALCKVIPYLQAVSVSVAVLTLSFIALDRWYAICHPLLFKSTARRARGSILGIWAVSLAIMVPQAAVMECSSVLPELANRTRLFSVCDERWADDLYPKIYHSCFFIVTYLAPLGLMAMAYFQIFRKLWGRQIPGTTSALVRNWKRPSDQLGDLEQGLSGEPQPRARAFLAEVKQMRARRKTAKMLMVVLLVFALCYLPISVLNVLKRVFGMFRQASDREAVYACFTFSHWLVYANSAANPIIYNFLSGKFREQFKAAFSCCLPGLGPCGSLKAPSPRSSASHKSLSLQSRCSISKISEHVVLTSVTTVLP
Description: Fluorescence-based cell-based high throughput dose response assay for antagonists of the orexin 1 receptor (OX1R; HCRTR1). [Related pubchem assays (depositor defined):AID434989, AID435008, AID463079, AID485270, AID492963, AID492964, AID492965, AID493232, AID504717, AID504718]. In kind it is functional.

The nature of assay [6]: Counterscreen for antagonists of the orexin 1 receptor (OX1R; HCRTR1): Fluorescence-based cell-based high throughput dose response assay to identify antagonists of the parental CHO cell line. [Related pubchem assays (depositor defined):AID434989, AID435008, AID463079, AID485270, AID492963, AID492964, AID492965, AID493232, AID504699, AID504701]. In kind it is functional.
Assay [7] addresses T2, Orexin receptor type 2 (Homo sapiens, UniProt O43614).
T2 sequence (O43614 whole entry): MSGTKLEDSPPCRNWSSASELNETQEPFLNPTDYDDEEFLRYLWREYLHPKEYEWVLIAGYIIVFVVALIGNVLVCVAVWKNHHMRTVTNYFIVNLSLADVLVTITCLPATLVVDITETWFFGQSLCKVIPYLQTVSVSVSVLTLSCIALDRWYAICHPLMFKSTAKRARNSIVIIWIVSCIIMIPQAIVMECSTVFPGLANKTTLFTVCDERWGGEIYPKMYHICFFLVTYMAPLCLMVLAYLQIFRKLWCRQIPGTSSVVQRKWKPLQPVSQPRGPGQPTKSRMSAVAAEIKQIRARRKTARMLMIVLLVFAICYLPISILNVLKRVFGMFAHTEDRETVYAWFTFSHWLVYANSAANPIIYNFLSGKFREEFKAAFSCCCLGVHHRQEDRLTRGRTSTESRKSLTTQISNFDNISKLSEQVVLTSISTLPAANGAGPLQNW
Description: Counterscreen assay for antagonists of the orexin 1 receptor (OX1R; HCRTR1): Homogeneous Time Resolved Fluorescence (HTRF)-based cell-based dose response assay for antagonists of the orexin 2 receptor (OX2R; HCRTR2), run by assay provider. Format: functional.

The target in assay [8] is T2, Orexin receptor type 2. Description: Counterscreen assay for antagonists of the orexin 1 receptor (OX1R; HCRTR1): Fluorescence-based cell-based dose response assay for antagonists of the orexin 2 receptor (OX2R; HCRTR2), run by assay provider. In kind it is functional.
The target of assay [9] is T1, Orexin/Hypocretin receptor type 1. The experiment in a line: Homogeneous Time Resolved Fluorescence (HTRF)-based cell-based high throughput dose response assay for antagonists of the orexin 1 receptor (OX1R; HCRTR1). [Related pubchem assays (depositor defined):AID434989, AID435008, AID463079, AID485270, AID492963, AID492964, AID492965, AID493232, AID504717, AID504718]. In kind it is functional.

In a further assay the target is T3, Protein RecA (Mycobacterium tuberculosis, UniProt P9WHJ3).
T3 sequence (P9WHJ3 whole entry): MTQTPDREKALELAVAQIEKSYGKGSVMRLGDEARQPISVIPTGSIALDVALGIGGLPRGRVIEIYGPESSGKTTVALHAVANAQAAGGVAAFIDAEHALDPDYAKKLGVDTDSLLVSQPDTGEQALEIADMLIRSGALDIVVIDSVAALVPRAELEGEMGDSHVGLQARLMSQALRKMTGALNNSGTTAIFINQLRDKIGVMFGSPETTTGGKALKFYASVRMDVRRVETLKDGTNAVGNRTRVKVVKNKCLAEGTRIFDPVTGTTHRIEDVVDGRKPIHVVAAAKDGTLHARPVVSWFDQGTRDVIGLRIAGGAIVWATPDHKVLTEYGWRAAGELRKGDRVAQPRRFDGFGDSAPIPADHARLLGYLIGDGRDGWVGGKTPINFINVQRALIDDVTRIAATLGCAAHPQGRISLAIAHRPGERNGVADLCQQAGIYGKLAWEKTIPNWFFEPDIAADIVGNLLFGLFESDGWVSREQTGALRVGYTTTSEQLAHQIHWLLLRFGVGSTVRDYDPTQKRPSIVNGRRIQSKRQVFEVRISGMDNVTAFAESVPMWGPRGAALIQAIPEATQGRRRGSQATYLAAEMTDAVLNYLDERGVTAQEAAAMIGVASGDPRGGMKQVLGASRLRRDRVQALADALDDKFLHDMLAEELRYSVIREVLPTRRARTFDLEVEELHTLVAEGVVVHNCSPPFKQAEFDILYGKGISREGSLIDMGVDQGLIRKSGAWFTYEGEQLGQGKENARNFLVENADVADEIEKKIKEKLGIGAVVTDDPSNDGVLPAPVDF
The experiment in a line: Fluorescence Cell-Free Homogeneous Dose Retest to Identify Inhibitors of RecA-Intein Splicing Activity. [Related pubchem assays (depositor defined):AID2097, AID2223, AID489010, AID492950]. Format: functional.

For the next assay, the target named is Genome polyprotein (dengue virus type 2, UniProt P29990). The experiment in a line: flavivirus cap methylation enzyme inhibition – biochemical, confirmation dose response, primary screen (AID 588689). Format: functional.
Sequence of Genome polyprotein (P29990 2492-3391 limits assumed): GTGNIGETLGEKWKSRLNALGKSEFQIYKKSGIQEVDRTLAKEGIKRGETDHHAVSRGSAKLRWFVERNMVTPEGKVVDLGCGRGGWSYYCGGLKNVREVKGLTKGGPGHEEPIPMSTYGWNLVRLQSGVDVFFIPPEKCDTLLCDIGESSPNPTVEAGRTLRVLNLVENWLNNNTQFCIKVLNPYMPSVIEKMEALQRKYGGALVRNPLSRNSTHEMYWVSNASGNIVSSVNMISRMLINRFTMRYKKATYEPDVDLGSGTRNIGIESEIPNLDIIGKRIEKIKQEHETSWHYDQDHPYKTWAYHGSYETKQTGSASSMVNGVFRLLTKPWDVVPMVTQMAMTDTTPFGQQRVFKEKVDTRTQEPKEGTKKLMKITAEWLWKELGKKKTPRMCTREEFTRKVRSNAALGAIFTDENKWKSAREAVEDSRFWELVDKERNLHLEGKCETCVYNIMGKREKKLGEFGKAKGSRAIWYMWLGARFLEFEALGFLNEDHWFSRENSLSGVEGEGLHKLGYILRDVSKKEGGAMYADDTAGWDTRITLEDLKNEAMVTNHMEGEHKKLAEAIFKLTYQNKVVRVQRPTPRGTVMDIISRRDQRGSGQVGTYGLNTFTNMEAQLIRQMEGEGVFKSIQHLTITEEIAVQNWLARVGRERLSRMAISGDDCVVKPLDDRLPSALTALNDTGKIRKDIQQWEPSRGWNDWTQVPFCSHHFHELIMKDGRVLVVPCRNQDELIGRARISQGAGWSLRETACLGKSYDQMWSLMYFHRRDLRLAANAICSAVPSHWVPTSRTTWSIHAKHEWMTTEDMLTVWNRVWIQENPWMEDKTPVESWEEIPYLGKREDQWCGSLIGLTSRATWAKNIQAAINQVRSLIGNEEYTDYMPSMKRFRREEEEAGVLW
Assay [10] has as its target T4, Replicative DNA helicase DnaB (Mycobacterium tuberculosis, UniProt P9WMR3).
T4 sequence (P9WMR3 whole entry): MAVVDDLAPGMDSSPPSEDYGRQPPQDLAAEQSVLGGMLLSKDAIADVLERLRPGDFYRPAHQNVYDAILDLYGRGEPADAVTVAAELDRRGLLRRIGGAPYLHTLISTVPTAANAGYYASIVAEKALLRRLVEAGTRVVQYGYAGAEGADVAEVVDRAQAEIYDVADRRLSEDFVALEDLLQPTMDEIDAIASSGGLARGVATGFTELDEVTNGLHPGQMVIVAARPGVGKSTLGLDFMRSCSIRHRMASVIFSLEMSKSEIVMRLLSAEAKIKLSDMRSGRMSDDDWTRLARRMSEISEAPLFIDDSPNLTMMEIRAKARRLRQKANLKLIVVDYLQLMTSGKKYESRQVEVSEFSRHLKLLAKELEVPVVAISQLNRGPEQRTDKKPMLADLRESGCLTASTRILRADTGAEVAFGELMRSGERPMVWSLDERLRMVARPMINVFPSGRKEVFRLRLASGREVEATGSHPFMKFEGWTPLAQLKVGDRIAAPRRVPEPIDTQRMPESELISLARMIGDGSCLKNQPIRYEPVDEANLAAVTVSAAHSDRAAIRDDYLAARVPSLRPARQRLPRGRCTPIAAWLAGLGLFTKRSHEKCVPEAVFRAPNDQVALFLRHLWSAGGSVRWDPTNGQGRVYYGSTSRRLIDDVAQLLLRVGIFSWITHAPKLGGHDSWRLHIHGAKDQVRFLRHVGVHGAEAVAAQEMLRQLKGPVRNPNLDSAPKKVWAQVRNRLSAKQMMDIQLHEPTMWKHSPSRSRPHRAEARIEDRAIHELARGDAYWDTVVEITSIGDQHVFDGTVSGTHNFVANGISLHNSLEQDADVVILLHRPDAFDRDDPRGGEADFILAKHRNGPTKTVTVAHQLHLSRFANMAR
Description: DnaB intein splicing inhibitors, dose response, biochemical, cell-free fluorescence (AID 449749). In kind it is functional.

Assay [11] deals with FAD-linked sulfhydryl oxidase ALR (Homo sapiens, UniProt P55789). The experiment in a line: ALR-catalysed DTT oxidation blockers – biochemical, H2O2 detection, luminescence, cherry-pick, dose response (AID 493248).
Sequence of FAD-linked sulfhydryl oxidase ALR (P55789 whole entry): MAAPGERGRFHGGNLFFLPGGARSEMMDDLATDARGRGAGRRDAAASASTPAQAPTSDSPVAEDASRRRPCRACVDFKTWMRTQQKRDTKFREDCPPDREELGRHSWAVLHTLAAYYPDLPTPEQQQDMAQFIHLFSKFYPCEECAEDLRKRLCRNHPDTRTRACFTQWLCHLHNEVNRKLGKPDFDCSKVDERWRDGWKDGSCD
Assay [12] has as its target Ras and Rab interactor 1/Tyrosine-protein kinase ABL1 (Homo sapiens, UniProt P00519+Q13671). Format: functional.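 Note: biochemical TR-FRET dose-response test measuring inhibition of binding between Rin1 and Abl proteins.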
Another assay concerns the target Aurora kinase B (Homo sapiens, UniProt Q96GD4). In kind it is functional.
In a further assay the target is T5, Aurora kinase A (Homo sapiens, UniProt O14965).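 Note: value from the Navigating the Kinome kinase panel profiling, panel entry STK6.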
T5 sequence (O14965 whole entry): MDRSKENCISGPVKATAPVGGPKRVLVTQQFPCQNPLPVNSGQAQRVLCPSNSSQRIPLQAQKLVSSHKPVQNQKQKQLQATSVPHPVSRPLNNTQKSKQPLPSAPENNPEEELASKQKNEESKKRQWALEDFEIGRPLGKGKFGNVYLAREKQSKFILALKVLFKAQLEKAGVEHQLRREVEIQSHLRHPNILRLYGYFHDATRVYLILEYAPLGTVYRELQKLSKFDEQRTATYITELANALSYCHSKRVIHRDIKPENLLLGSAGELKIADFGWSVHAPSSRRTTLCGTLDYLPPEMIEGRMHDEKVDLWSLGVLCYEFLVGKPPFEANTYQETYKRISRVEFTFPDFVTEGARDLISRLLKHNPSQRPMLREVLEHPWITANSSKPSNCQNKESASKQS
In kind it is functional.

Activity calls are given as the source filed them.

Sequence of Ras and Rab interactor 1/Tyrosine-protein kinase ABL1 (P00519 whole entry): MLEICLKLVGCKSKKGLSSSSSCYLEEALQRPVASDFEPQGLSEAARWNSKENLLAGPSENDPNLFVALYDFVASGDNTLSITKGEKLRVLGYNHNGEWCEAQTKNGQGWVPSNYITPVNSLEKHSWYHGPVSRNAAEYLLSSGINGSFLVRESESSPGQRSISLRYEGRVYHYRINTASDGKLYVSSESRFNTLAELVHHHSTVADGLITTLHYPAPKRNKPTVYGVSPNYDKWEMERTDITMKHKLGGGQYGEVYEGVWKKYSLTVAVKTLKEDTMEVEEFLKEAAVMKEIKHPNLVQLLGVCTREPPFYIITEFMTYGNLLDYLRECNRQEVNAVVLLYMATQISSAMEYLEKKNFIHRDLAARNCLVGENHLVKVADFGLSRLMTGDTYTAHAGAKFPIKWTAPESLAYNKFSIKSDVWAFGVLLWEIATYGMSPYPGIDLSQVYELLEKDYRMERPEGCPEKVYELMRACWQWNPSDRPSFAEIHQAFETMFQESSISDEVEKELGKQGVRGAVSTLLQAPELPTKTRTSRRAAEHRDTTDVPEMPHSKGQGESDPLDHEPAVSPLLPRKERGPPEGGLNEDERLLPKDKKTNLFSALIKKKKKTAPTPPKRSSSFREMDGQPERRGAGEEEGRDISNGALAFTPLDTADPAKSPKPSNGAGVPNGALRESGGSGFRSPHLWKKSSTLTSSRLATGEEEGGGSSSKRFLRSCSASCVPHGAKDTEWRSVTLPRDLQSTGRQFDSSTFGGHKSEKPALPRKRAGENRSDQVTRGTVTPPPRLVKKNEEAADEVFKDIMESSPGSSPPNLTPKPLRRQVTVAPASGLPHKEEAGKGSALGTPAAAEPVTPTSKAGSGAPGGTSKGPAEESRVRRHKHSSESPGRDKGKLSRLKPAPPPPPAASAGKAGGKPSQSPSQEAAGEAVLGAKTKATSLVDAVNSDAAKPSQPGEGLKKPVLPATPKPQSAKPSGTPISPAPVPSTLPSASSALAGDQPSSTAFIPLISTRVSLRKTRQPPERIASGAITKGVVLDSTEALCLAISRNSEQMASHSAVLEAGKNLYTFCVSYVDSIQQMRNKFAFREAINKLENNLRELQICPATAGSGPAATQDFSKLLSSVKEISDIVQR
Sequence of Ras and Rab interactor 1/Tyrosine-protein kinase ABL1 (Q13671 whole entry): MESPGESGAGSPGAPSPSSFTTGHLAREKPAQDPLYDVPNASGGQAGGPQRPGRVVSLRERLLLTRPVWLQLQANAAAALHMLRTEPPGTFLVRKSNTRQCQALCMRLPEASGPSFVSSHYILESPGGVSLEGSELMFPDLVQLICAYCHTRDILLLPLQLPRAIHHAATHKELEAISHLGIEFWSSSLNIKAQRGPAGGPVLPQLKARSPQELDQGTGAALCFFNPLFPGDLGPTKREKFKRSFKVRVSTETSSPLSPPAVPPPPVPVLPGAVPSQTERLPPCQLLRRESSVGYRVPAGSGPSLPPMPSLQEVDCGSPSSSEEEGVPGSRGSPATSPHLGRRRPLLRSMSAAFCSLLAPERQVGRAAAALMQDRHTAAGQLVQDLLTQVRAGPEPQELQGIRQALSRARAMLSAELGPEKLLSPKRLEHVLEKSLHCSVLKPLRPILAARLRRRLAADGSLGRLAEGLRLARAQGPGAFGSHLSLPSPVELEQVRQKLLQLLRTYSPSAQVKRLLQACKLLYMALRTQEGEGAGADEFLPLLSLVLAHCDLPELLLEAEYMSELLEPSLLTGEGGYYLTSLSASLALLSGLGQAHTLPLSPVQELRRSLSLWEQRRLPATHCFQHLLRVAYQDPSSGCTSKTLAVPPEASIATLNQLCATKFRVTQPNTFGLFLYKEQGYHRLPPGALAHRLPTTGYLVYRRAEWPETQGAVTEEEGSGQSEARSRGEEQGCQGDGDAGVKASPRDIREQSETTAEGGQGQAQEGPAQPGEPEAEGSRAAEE
Sequence of Aurora kinase B (Q96GD4 whole entry): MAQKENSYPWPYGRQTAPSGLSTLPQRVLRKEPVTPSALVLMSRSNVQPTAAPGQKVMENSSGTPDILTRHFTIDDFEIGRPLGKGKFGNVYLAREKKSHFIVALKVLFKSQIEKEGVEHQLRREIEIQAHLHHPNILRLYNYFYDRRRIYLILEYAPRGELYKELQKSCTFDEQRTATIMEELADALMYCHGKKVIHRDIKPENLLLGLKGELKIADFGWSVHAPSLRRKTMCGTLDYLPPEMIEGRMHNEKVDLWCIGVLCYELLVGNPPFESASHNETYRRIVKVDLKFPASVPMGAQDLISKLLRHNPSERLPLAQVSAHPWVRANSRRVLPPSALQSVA

Regarding `N=C(NOC(=O)c1ccc2ccccc2c1)c1ccccc1Cl`, the AC50 in assay [1] is 2.34 µM (active). Moreover, the EC50 in assay [2] was 1.8 µM (active); in assay [3], 8.76 µM (active).
Take `COc1ccc2c(c1)C=C(C(=O)NCc1ccc(Cl)cc1)CO2`: the AC50 in assay [1] is 69.4 µM (active).
As for `COc1ccc(CN2CC[C@H]3C=CC[C@@H](C(=O)Nc4ccc(Cl)c(C(F)(F)F)c4)[C@H]3C2=O)cc1OC`, the CC50 in [4] was 42.4 µM (active). Further, the IC50 in the assay on CHO-K1 was > 66.2 µM (inactive); in [5], 3.22 µM (active); in [6], > 49.8 µM (inactive); on Orexin receptor type 2 [7] it was > 50 µM (inactive); at Orexin receptor type 2 [8], > 88.8 µM (inactive); in assay [9], 0.071 µM (active). Also, the IC50 in “cells” was 23.6 µM (active).
On to `O=C(N=Nc1c(O)[nH]c2ccccc12)c1cccc(S(=O)(=O)Nc2ccccc2Cl)c1`, for which the IC50 with CHO-K1 was > 66.2 µM (inactive); in assay [5], > 49.8 µM (inactive); in assay [6] it was > 49.8 µM (inactive); at Orexin receptor type 2 [7], > 50 µM (inactive); on Orexin receptor type 2 [8], > 88.8 µM (inactive); in assay [9], 1.01 µM (active).
Regarding `COC(=O)c1cccc(N2C(=O)C(Cl)=C(N3CCOCC3)C2=O)c1`, the EC50 at Protein RecA was 1.93 µM (active). Further, the IC50 on Genome polyprotein is 23.6 µM (active). Also, in [10], the AC50 was 4.2 µM (active).
Consider `CC(C)(O)c1cc2ccc(C#Cc3ccsc3)cc2c(=O)o1`, for which the IC50 with CHO-K1 was > 66.2 µM (inactive); in assay [5], 9.4 µM (active); in assay [6], > 49.7 µM (inactive); at Orexin receptor type 2 [7] it was > 50 µM (inactive); on Orexin receptor type 2 [8], > 88.8 µM (inactive); in assay [9], 4.32 µM (active).
Take `CC1=NN(Cc2ccccc2)C(=O)C1C(c1ccccc1)C(C#N)C#N` (centres undefined): at Protein RecA, the EC50 was 2.22 µM (active). Moreover, the IC50 at Genome polyprotein is 55.4 µM (active). Moreover, the AC50 in [11] is 5.37 µM (active); in assay [10] it was 3.54 µM (active).
In the case of `Cc1ccccc1CN1C[C@@H]2C[C@@H](c3ccc4nsnc4c3)N3CCC[C@@]23C1=O`, the IC50 in assay [12] is 34.1 µM (inactive).
With `CC(Nc1cncc(-n2cnc3ccccc32)n1)c1ccc(F)cc1` (centres undefined), the Ki on Aurora kinase B was 0.0794 µM (active); at Aurora kinase A, 1.26 µM (active).
